According to PubChem BioAssay (NCI):
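Test compounds were applied to cells in 96-well plates for 48 hours at 5 doses. Here, GI50 denotes the concentration required for 50% inhibition of growth. At the TGI there is no net growth.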

Assays:
Assay in all cases: NCI tumour cell line growth inhibition, 48 h
SK-MEL-2 melanoma = tested on: SK-MEL-2 melanoma
HOP-92 NSCLC = tested on: HOP-92 NSCLC
OVCAR-8 ovarian = tested on: OVCAR-8 ovarian
SN12C renal = tested on: SN12C renal
SF-268 CNS = tested on: SF-268 CNS
CAKI-1 renal = tested on: CAKI-1 renal
EKVX NSCLC = tested on: EKVX NSCLC
MDA-MB-435 = tested on: MDA-MB-435
DU-145 prostate = tested on: DU-145 prostate
T-47D breast = tested on: T-47D breast

Row | SMILES | TGI (SK-MEL-2 melanoma) [µM] | TGI (HOP-92 NSCLC) [µM] | TGI (OVCAR-8 ovarian) [µM] | TGI (SN12C renal) [µM] | TGI (SF-268 CNS) [µM] | TGI (CAKI-1 renal) [µM] | TGI (EKVX NSCLC) [µM] | TGI (MDA-MB-435) [µM] | TGI (DU-145 prostate) [µM] | TGI (T-47D breast) [µM] | GI50 (CAKI-1 renal) [µM] | GI50 (SK-MEL-2 melanoma) [µM] | GI50 (MDA-MB-435) [µM] | GI50 (OVCAR-8 ovarian) [µM] | GI50 (SF-268 CNS) [µM] | GI50 (EKVX NSCLC) [µM] | GI50 (DU-145 prostate) [µM] | GI50 (T-47D breast) [µM] | GI50 (HOP-92 NSCLC) [µM]
1 | COc1ccc(C2NC3=C(CCCC3)N2)cc1 | > 100 | > 100 | > 100 | > 100 | > 100 |  |  |  |  |  |  |  |  |  |  |  |  |  | 
2 | N#Cc1c(O)c(C=O)c(=O)n2c1[nH]c1ccccc12 |  | > 100 | > 100 | > 100 | > 100 | > 100 | > 100 | > 100 | > 100 |  |  |  |  |  |  |  |  |  | 
3 | COc1cc(C(=O)N(C(=O)N2CCCCC2)c2ccccc2)cc(OC)c1OC | > 100 | > 100 | > 100 | > 100 |  | > 100 | > 100 | > 100 | > 100 | > 100 |  |  |  |  |  |  |  |  | 
4 | COc1ccc(N2C(=O)C(=O)C3(CCCCC3)C2=O)c(OC)c1OC |  |  | > 100 | > 100 | > 100 | > 100 | > 100 | > 100 | > 100 | > 100 |  |  |  |  |  |  |  |  | 
5 | Cc1csc2c(=O)n(COCc3ccccc3)c(=O)[nH]c12 |  | > 100 | > 100 | > 100 | > 100 | > 100 | > 100 | > 100 | > 100 |  |  |  |  |  |  |  |  |  | 
6 | O=C(CBr)NCCc1c[nH]c2ccccc12 | 4.16 | 4.88 | > 48.3 | 2.65 | 7.59 | 1.91 | 3.72 | 3.34 | 4.19 |  |  |  |  |  |  |  |  |  | 
7 | Nc1ccn(CCCC(c2ccccc2)P(=O)(O)O)c(=O)n1 (centres undefined) | > 100 | > 100 | > 100 | > 100 | > 100 | > 100 |  |  |  |  |  |  |  |  |  |  |  |  | 
8 | O=c1cc(NNc2cccc(F)c2)[nH]c(=S)[nH]1 |  | 99.5 | > 100 | > 100 | > 100 |  | > 100 | > 100 | > 100 |  |  |  |  |  |  |  |  |  | 
9 | Cc1cc2nc(CC(C(F)(F)F)C(F)(F)F)oc2cc1C | 9.85 | 28.9 | 3.23 |  | 8.2 | 5.13 | 7.6 | 5.64 | 16.4 | 10.7 |  |  |  |  |  |  |  |  | 
10 | COc1ccc(N2C(=O)C3C=CC(n4[nH]c(=O)n(Cc5ccccc5)c4=O)CC3C2=O)cc1 (centres undefined) | > 100 | > 100 | > 100 | > 100 | > 100 | > 100 | > 100 |  |  |  |  |  |  |  |  |  |  |  | 
11 | CCOC(=O)C1=C(O)c2ccc(OC)cc2C(=O)C1=O | > 100 | > 100 | > 100 | > 100 | > 100 | > 100 | > 100 |  |  |  |  |  |  |  |  |  |  |  | 
12 | CNC(=O)c1cc(Oc2cccc3nc(NC(=O)Nc4ccc(F)cc4F)ccc23)ccn1 | > 50 |  | > 50 |  | > 50 | > 50 |  | > 50 |  |  | 1.61 | > 50 | 1.5 | 1.65 | 1.9 |  |  |  | 
13 | COc1ccc(Oc2nc3c(N)cc(C(F)(F)F)cc3nc2-c2ccccc2)cc1 | 25.9 | > 100 | > 100 |  | 64.5 | 44 | 28.9 | > 100 |  | 26.9 |  |  |  |  |  |  |  |  | 
14 | COc1cc(O)c2c(=O)c(OC)c(-c3ccc(OC)c(OC)c3)oc2c1.[Sn] |  |  | > 100 | > 100 | > 100 | > 100 | > 100 |  | > 100 | > 100 |  |  |  | > 100 | > 100 | > 100 | > 100 | 7.91 | 
15 | COc1ccc(/C=C(\C2=NC(=O)CS2)c2nc3ccccc3[nH]2)cc1 | 62.9 | > 100 | > 100 | > 100 | > 100 | > 100 | > 100 |  |  |  |  |  |  |  |  |  |  |  | 
16 | COC1=CC(c2ccc[nH]2)=N/C1=C\c1[nH]c(C)c(C)c1CCC(=O)OCc1ccccc1 | 2.1 | 0.732 | 1.44 |  | 2.92 | 2.08 | 1.9 | 1.64 | 6.82 | 0.876 | 0.3 | 0.572 | 0.44 | 0.366 | 0.369 | 0.281 | 0.446 | 0.227 | 0.217
17 | CP(=O)(O)C(N)c1ccccc1 (centres undefined) |  | > 100 | > 100 | > 100 | > 100 | > 100 | > 100 | > 100 | > 100 | > 100 |  |  |  |  |  |  |  |  | 
18 | c1ccc(Sc2nc(Sc3ccccc3)nc(Sc3ccccc3)n2)cc1 | > 100 |  |  | > 100 | > 100 | > 100 | > 100 | > 100 | 47.1 | 45 |  |  |  |  |  |  |  |  | 
19 | COC(=O)C1Cc2c([nH]c3ccccc23)-c2[nH]c3ccccc3c2CC(NC(C)=O)C(=O)N2CCCC2C(=O)N1 (centres undefined) | > 100 |  | > 100 | > 100 | > 100 | > 100 | > 100 | > 100 | > 100 | > 100 |  |  |  |  |  |  |  |  | 
20 | CCC1OC2C(CC=C(C)C)=C3OC(C)(O)C(C)(CC)C(=O)C3=C3OC(=O)C=C1C32 (centres undefined) | 36.1 | 71.2 |  |  | > 100 | > 100 | > 100 | > 100 | > 100 | > 100 |  |  |  |  |  |  |  |  | 
21 | COc1ccc(OC)c(-c2cc(=O)c3cc4c(cc3[nH]2)OCO4)c1 | > 51.3 | 41.3 | > 68.5 | > 87.5 | > 100 | > 65.7 | > 100 |  |  |  |  |  |  |  |  |  |  |  | 
22 | COc1c(C)c(C/C=C(\C)CCCCO)c(OC)c2ccccc12 | > 100 | 80.4 | > 100 | 52.9 | > 100 | 94.9 | > 100 | 99.2 | > 100 |  |  |  |  |  |  |  |  |  | 
23 | O=P(Nc1cccc(Cl)c1)(Oc1ccccc1)N(CCCl)CCCl (centres undefined) | 25.6 | 24.7 | 37.9 | 29.1 | 31.4 | 31.5 | 33.9 |  |  |  |  |  |  |  |  |  |  |  | 
24 | CN(C)C1(c2cc3ccccc3s2)CCCCC1 | 47.7 | 63.6 | > 100 | > 100 | 52 | > 100 | > 100 | > 100 | > 100 |  |  |  |  |  |  |  |  |  | 
